Source: patent US5459160A, “Iridoid derivatives and the use thereof as a drug” (Tsumura & Co., priority 1990, dated 1995)
Like-named read-outs stand apart in the source and are kept apart here.

Key:
[1] = system: cholesterol synthesis in liver slices; experiment: Cholesterol synthesis from [1-14C] acetic acid in liver slices (Experimental Example 2); assay type: cell-based, male Wistar rats; settings: drug final concentration 0.1-1.0 mM, 37° C., 120 minutes; control 100; Table 2
Procedure: Liver slices (0.5 mm) were prepared from male Wistar rats 5 weeks old acclimated for 10 days in a bright/dark inversion raising chamber (bright period: 8:00 p.m.-8:00 a.m.). […] Incubation was carried out at 37° C. for 120 minutes in 95% oxygen and 5% carbon dioxide. The reaction was stopped by adding 1 m.iota. of 15% potassium hydroxide/ethanol, and saponification was carried out at 80° C. for 2 hours. The sterol fraction was extracted by petroleum ether and was evaporated to driness. Thereafter, 1 m.iota. of acetone/ethanol (1:1) and 1 m.iota. of 0.5% digitonine were added, and the mixture was left standing for a night at room temperature. The precipitate was collected by centrifugal separation and was washed with 2 m.iota. of acetone/ether (1:1). The precipitate was further centrifuged. After the supernatant was discarded, the precipitate was dissolved in methanol and its radioactivity was measured.

[2] = system: bile secretion; experiment: Cholagogic action, bile secretion (Experimental Example 5); assay type: in vivo, male Wistar rats; settings: intraduodenal
Procedure: After male Wistar rats 7 weeks old were fasted for 24 hours, they were anesthetized by the interperitoneal administration of 1.25 g/kg (volume 2 m.iota./kg) of urethane. A polyethylene canula (SP-10, a product of Natsume Seisakusho) was inserted into a bile duct and after the bile was caused to flow out for 30 minutes, the bile was collected in the cource of 1 hour. Thereafter, each test drug was suspended or dissolved in a 1% aqueous Tween-80 solution, and was administered into the duodenum at a rate of 5 m.iota./kg. Furthermore, the bile was collected every hour in the course of five hours, and its weight was measured. Only a 1% Tween-80 solution was given as a control.
The results are tabulated in Tables 6, 7, 8, 9 and 10, wherein the bile secretion amount every hour was represented by a percentage with the bile secretion amount (mg) one hour before the dose of the test drug being 100.

[3] = Acute toxicity test; settings: mouse, in vivo, ip; male S.P.P. mice, abdominally administered; Table 11
Procedure: The acute toxicity test was carried out by abdominally administering each test drug to male S.P.P. mice and determining an LD50 value.

[4] = system: cholic acid and chenodeoxycholic acid synthetic activity in liver cells; experiment: Synthetic activity of bile acid (cholic acid and chenodeoxycholic acid) in incubated liver cells (Experimental Example 3); assay type: cell-based, male Wistar rats; settings: Rattus norvegicus, Hepatocyte, 10^-6 M, 24 hours, 37° C., control 100, Table 4
Procedure: Influences on Synthetic Activity of Bilic Acid in Incubated Liver Cell
The liver cells were separated from male Wistar rats 5.0-5.5 weeks old using a reflux method in accordance with the method of Nakamura et al (Toshikazu Nakamura "The Experimental Method for the Primary Cultured Hepatocytes", 1987). In this case, the separation of the cells was started at 9-10:00 a.m. The separated liver cells were floated in a Williams E medium inactivated by heat-treatment and containing 10% FBS, 20 mU/m.iota. insulin, […] dexamethasone, 100 IU/m.iota. peniciline and 100 μg/m.iota. streptomycin so that the cell density became 1×10^5 cells/cm^2 /0.2 m.iota.. The liver cells were planted in a cell density of 1×10^5 cells/cm^2 /0.2 m.iota. in a dish having a diameter of 60 mm. After incubation at 37° C. for 4 hours, a medium exchange was made and the medium was changed to 3 m.iota.. Next, [4-^14 C] cholesterol was added in an amount of 11.655 kBq per dish, and a 0.33% ethanol solution of each test drug was added. Control used only 0.33% ethanol. After incubation was carried out at 37° C. for 24 hours, the synthetic activity of cholic acid and chemodexycholic acid generated in the cells and the medium were measured.
Measurement of Cholic Acid and Chenodeoxycholic Acid Synthetic Activity
The measurement of cholic acid and chenodeoxycholic acid synthetic activity was carried out in accordance with the method of M. G. Pricen et al (Hans M. G. Pricen, Chrisstine M. G. HuJismans, Folkerr Kuipers, Roel J. Vonk and Herman Jan M. Kempen, J. Clin. Invest., 78: 1064-1071, 1986). Twenty-four hours later, the cells and the medium were collected from the incubated liver cells and the cells were pulverized by a ultrasonic pulverizer. Bile acid was separated and eluted by a column cartridge having an opposite phase system, i.e., "Sep-pak"® C18 (Waters Associates, Milford, Mass.), and the conjugation of conjugated bile acid was hydrolyzed using choloylglycine hydrolase. The extraction of bile acid was carried out using chloroform after the solution was rendered acidic by hydrochloric acid. The extract was dissolved in 100 μ.iota. of water:methanol (1:4, containing 40 μg/10 μ.iota. cholic acid and 100 μg/100 μ.iota. chenodeoxycholic acid). 80 μ.iota. of this solution was spotted onto an aluminum plate (MERCK, ART 5582) and was developed using a developing solution consisting of benzene/1,4-dioxane/acetic acid (20:10:2). After the TLC plate was exposed to an iodine gas stream and each spot of bile acid was confirmed, it was cut off and its radioactivity was measured by a liquid scintillation counter. To correct the proportion of elution of the Sep-pak and the hydroclysis and extraction of conjugated bile acid by choloylglycine hydrolase, 2 nCi of [^3 H(G)] taurocholic acid was added and 3H of the spot of cholic acid was measured after the supersonic pulverization and correction was thus carried out (TsuJita, Y., Kuroda, M., Shimada, Y., Tanzawa, K., Arai, M., Kenko, I., Tanaka, M., Tarumi, C., Watanabe, Y., and Fujii, Biochemical et Biophysics Acta. 877:50-60, 1986).
Non-radioactive cholic acid and chenodeoxycholic acid were added as a carrier, to clarify the position of the spot by the iodine gas stream when bile acid was developed, but for the β-muricholic acid, the position of the spot was indefinite even when the non-radioactive acids were added. Therefore, the portion estimated by the Rf value described in the reference was cut off and measured again.

[5] = system: hyperlipemia; experiment: Anti-hyperlipemia test in rats on high fat food (Experimental Example 1); assay type: in vivo, Male Wistar rats; settings: peroral once a day, two weeks, control 100, Table 1
Excerpt: Male Wistar rats 6.5 weeks old were allowed to freely intake a high fat food (containing 1% of cholesterol, 0.5% of sodium cholate, 12% of beef tallow and 20% of standard chow) in the cource of two weeks, to thus cause an outbreak of hyperlipemia. The dose of the drug was started simultaneously with the application of the high fat food, and was perorally given once a day through a stomach tube until the end of the experiment. The drugs were all suspended in a cane sugar fatty acid ester and were administered. The oily compounds were adjusted in advance to 100 mg/m.iota. by diethyl ether. A suitable amount was collected at the time of the dose and after diethyl ether was evaporated and removed, it was suspended in a cane sugar fatty acid ester (1% ryoto sugar ester) and then given. After the final dose of the drug, the rats were fasted for about 18 hours, and the blood was sampled to measure the blood serum lipid. The blood serum lipid was measured by using a TBA-380 biochemical analyzer (a product of Toshiba Medical Co.,) unless a particular hindrance occurred.

[6] = 0-1 hour after dose, control 82.9, Table 10
[7] = 1-2 hour after dose, control 74.1, Table 10
[8] = 2-3 hour after dose, control 66.1, Table 10
[9] = 3-4 hour after dose, control 59.8, Table 10
[10] = 4-5 hour after dose, control 53.3, Table 10

Structure (SMILES) | Relative amount of synthesized cholesterol (%) [1] [%] | Bile secretion amount, percentage of the hour before dose [2, 6] [%] | Bile secretion amount, percentage of the hour before dose [2, 7] [%] | Bile secretion amount, percentage of the hour before dose [2, 8] [%] | Bile secretion amount, percentage of the hour before dose [2, 9] [%] | Bile secretion amount, percentage of the hour before dose [2, 10] [%] | LD50 [3] [mg/kg] | further results
CCOC(C)O[C@@H]1OC=C(C(=O)OC)[C@H]2CC=C(C=O)[C@@H]12 (stereo partly drawn) [Definite Example 22, methyl (1S, 4aS, 7aS)-1-[1-(ethoxy)ethoxy]-7-formyl-1,4a, 5,7a-tetrahydrocyclopenta[c]pyran-4-carboxylate] | 86.2 | – | – | – | – | – | – | –
COC(=O)C1=COC(O)[C@@H]2C(C=O)=CC[C@H]12 (stereo partly drawn) [Definite Example 23, methyl (4aS, 7aS)-7-formyl-1,4a, 5,7a-tetrahydro-1-hydroxycyclopenta[c]pyran-4-carboxylate] | 80.1 | – | – | – | – | – | – | –
CC(=O)O[C@@H]1OC=C(CO)[C@H]2CC=C(CO)[C@@H]12 [Definite Example 27, (1S, 4aS, 7aS)-1-acetoxy-4,7-bis(hydroxymethyl)-1,4a, 5,7a-tetrahydrocyclopenta[c]pyran] | 73.5 | 98.3 | 75.3 | 59.0 | 48.7 | 43.5 | 473 | –
COC(=O)C1=CO[C@@H](OC(C)=O)[C@H]2[C@@H]1CC1OCC12OC(C)=O (stereo partly drawn) [Definite Example 30, methyl (iS, 4aS, 7aS)-1,7-diacetoxy-6,7-(epoxymethano)-1,4a, 5,6,7,7a-hexahydrocyclopenta[c]pyran-4-carboxylate] | 50.1 | 97.9 | 83.1 | 69.7 | 61.0 | 53.9 | 468 | –
COC(=O)C1=COC(O)[C@@H]2[C@H](C)CC[C@H]12 (stereo partly drawn) [Definite Example 31, methyl (4aS, 7R, 7aR)-1,4a, 5,6,7,7a-hexahydro-1-hydroxy-7-methylcyclopenta[c]pyran-4-carboxylate] | – | – | – | – | – | – | 814 | activity at 1 µM ([4]; read-out: Relative amount of synthesized chenodeoxycholic acid): 113%; activity at 1 µM ([4]; read-out: Relative amount of synthesized cholic acid): 105%; Blood serum cholesterol (%) ([5]; 10 mg/kg): 82.0%; Blood serum triglyceride (%) ([5]; 10 mg/kg): 79.0%; Blood serum cholesterol (%) ([5]; 30 mg/kg): 96.1%; Blood serum triglyceride (%) ([5]; 30 mg/kg): 76.5%; Bile secretion amount, percentage of the hour before dose ([2]; 0-1 hour after dose, control 84.1, Table 8): 126.7%; Bile secretion amount, percentage of the hour before dose ([2]; 1-2 hour after dose, control 72.5, Table 8): 88.0%; Bile secretion amount, percentage of the hour before dose ([2]; 2-3 hour after dose, control 63.8, Table 8): 73.0%; Bile secretion amount, percentage of the hour before dose ([2]; 3-4 hour after dose, control 56.7, Table 8): 63.7%; Bile secretion amount, percentage of the hour before dose ([2]; 4-5 hour after dose, control 51.2, Table 8): 55.1%
COC(=O)C1=COC(=O)[C@@H]2[C@H](C)CC[C@H]12 [Definite Example 32, methyl (4aS, 7R, 7aR)-1,4a, 5,6,7,7a-hexahydro-7-methyl-1-oxocyclopenta[c]pyran-4-carboxylate] | 96.2 | 110.7 | 80.6 | 66.2 | 55.6 | 49.6 | – | –
COC(=O)C1=COC(OC(=O)c2ccccc2)C2C(C)=CCC12 [Definite Example 36, methyl (2S, 4aS, 7aS)-1-benzoyloxy-1,4a, 5,7a-tetrahydro-7-methylcyclopenta[c]pyran-4-carboxylate] | 72.4 | – | – | – | – | – | – | –
COC(=O)C1=CO[C@@H](OC(C)=O)[C@@H]2C(C)=CC[C@H]12 [Definite Example 38, methyl (1S, 4aS, 7aS)-1-acetoxy-1,4a, 5,7a-tetrahydro-7-methylcyclopenta[c]pyran-4-carboxylate] | 72.8 | – | – | – | – | – | – | –
